Earlier results on 1 compound are cited in patent US6399104B1, “Pharmaceutical compositions” (AstraZeneca UK Limited, priority 1997, dated 2002).

Each structure is given as a SMILES string.

For the series the following is noted: as disclosed in U.S. Pat. No. 5,319,097.

As for `COc1cc(C(=O)NS(=O)(=O)c2ccccc2C)ccc1Cc1cn(C)c2ccc(NC(=O)OC3CCCC3)cc12` [Form A, N-[4-[5-(cyclopentyloxycarbonyl)amino-1-methylindol-3-ylmethyl]-3-methoxybenzoyl]-2-methylbenzene], the bioavailability entry is on record as “good bioavailability”.
